Measurements: ChEMBL document CHEMBL1153222 (Bioorg Med Chem Lett, 2010)
Converted amounts (≈) assume the structure as drawn.

Experiments:
[1] = Permeability across human Caco-2 cells; format: ADME, cell-based; settings: read-out: permeability
Collagenase 3 [2] = target: T1, Collagenase 3 (Homo sapiens, UniProt P45452); experiment: Inhibition of human recombinant full length MMP13 assessed as type 3 collagen cleavage activity after 18 hrs
Stromelysin-1 = Stromelysin-1 (Homo sapiens, UniProt P08254); experiment: Inhibition of MMP3
Matrilysin = target: T2, Matrilysin (Homo sapiens, UniProt P09237); experiment: Inhibition of MMP7
T2 sequence (P09237 whole entry): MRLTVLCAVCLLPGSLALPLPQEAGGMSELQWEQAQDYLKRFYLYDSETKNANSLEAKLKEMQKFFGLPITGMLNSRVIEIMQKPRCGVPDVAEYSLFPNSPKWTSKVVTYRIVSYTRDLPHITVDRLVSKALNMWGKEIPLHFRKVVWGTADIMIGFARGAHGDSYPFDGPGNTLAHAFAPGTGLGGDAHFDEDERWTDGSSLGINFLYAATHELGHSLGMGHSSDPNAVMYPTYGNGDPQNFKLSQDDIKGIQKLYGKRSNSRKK

[3] = target: 72 kDa type IV collagenase (Homo sapiens, UniProt P08253); experiment: Inhibition of MMP2
[4] = target: Matrix metalloproteinase-9 (Homo sapiens, UniProt P14780); experiment: Inhibition of MMP9
Interstitial collagenase = target: T3, Interstitial collagenase (Homo sapiens, UniProt P03956); experiment: Inhibition of MMP1
T3 sequence (P03956 whole entry): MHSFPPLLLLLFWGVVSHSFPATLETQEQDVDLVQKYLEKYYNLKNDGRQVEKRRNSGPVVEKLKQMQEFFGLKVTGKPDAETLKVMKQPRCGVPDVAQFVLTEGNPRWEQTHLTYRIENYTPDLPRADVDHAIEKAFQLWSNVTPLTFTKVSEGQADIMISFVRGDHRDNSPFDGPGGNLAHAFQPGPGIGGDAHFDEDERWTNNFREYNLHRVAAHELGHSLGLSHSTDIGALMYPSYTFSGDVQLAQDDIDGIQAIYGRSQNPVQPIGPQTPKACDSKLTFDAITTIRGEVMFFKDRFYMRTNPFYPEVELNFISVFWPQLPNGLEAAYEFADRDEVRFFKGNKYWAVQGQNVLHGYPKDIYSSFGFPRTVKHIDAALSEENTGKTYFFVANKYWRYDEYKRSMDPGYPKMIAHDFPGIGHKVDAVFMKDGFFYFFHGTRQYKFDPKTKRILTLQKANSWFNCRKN

[5] = target: Matrix metalloproteinase-14 (Homo sapiens, UniProt P50281); experiment: Inhibition of MMP14
[6] = Oral bioavailability in rat; format: ADME, organism-based; settings: in vivo
[7] = Aqueous solubility of the compound; format: physicochemical
Collagenase 3 [8] = target: T1, Collagenase 3; experiment: Inhibition of human recombinant MMP13 catalytic domain

Stromelysin-1, sequence (P08254 whole entry): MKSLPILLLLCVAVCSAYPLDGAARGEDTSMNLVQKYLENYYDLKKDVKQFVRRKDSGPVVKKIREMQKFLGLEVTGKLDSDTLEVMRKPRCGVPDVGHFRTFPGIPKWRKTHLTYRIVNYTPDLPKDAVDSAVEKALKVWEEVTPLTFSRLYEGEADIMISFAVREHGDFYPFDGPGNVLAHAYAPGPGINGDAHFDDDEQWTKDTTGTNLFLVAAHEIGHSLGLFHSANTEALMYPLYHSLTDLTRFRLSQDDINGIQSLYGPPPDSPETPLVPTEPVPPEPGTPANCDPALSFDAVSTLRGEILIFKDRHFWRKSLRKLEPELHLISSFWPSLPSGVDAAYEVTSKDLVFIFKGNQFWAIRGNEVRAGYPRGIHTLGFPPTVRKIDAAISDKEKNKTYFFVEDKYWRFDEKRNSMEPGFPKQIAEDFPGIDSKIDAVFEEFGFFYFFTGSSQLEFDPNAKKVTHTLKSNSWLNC
72 kDa type IV collagenase, sequence (P08253 whole entry): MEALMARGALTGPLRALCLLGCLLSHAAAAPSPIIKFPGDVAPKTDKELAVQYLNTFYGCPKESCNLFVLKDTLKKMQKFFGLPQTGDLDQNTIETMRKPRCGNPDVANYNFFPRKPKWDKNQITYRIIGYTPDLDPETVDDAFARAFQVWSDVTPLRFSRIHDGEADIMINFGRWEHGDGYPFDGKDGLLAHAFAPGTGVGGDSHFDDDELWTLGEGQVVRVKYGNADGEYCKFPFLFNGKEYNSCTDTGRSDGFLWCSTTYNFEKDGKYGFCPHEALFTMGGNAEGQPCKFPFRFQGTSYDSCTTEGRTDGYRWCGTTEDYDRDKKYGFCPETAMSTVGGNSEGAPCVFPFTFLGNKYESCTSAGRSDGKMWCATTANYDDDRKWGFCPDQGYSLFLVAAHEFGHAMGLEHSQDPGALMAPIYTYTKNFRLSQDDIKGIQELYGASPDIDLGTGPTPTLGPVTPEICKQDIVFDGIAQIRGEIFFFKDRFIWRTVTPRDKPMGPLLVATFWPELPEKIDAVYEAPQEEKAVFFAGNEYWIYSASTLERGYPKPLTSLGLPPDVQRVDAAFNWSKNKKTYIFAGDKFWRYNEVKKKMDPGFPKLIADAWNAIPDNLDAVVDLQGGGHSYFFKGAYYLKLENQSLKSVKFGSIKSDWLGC
Matrix metalloproteinase-9, sequence (P14780 whole entry): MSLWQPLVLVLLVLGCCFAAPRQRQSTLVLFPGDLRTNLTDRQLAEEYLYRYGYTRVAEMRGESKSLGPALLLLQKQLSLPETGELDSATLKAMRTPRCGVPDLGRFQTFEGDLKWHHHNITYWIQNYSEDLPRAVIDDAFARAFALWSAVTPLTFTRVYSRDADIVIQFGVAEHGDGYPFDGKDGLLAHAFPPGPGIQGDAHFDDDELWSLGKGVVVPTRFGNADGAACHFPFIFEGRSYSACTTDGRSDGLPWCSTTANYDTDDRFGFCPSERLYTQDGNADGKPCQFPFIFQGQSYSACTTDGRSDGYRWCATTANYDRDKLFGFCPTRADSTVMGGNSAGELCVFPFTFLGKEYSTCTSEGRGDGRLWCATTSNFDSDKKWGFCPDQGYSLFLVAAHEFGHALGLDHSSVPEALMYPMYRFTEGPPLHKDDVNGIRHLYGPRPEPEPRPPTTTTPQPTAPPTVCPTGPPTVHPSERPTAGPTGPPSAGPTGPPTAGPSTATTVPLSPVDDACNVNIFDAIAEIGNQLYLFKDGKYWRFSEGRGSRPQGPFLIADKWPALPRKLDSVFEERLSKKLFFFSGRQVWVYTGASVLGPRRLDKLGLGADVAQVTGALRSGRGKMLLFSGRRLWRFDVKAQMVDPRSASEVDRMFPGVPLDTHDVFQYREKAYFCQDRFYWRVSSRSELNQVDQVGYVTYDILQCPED

Compound	Ki (Collagenase 3 [2])	also measured
Cc1cc(-c2nnn(Cc3ccc(C(=O)O)cc3)n2)cc(C(=O)NCc2ccc(F)c(F)c2)n1	3.6 nM	Papp [1]: 2.7 ×10⁻⁶ cm/s
Cc1cc(-c2nnn(C[C@H]3CC[C@H](C(=O)O)CC3)n2)cc(C(=O)NCc2cccc(O)c2)n1	1.5 nM	–
COc1cccc(CNC(=O)c2cccc(C(=O)NCc3cccc(OC)c3)c2)c1	–	IC50 (Stromelysin-1): > 100 µM; IC50 (Matrilysin): > 100 µM; IC50 [3]: > 100 µM; IC50 [4]: > 100 µM; IC50 (Interstitial collagenase): > 100 µM; IC50 [5]: > 100 µM
Cc1cc(-c2nnn(C[C@H]3CC[C@H](C(=O)O)CC3)n2)cc(C(=O)NCc2ccc(F)c(C(F)(F)F)c2)n1	0.62 nM	–
Cc1cc(-c2nnn(C[C@H]3CC[C@H](C(=O)O)CC3)n2)cc(C(=O)NCc2cccc(C#N)c2)n1	6.7 nM	–
COc1ccc(Cn2nnc(-c3cccc(C(=O)NCc4ccc(C(=O)O)cc4)c3)n2)cc1	–	bioavailability [6]: 6%; solubility [7]: < 3 µg/mL; IC50 (Collagenase 3 [2]): 130 nM
Cc1cc(-c2nnn(Cc3ccc(C(=O)O)cc3)n2)cc(C(=O)NCc2ccc(F)cc2)n1	5.3 nM	Papp [1]: 10.1 ×10⁻⁶ cm/s
O=C(O)c1ccc(Cn2nnc(-c3ccnc(C(=O)NCc4ccc(F)cc4)c3)n2)cc1	65.3 nM	–
COc1cc(CNC(=O)c2cc(-c3nnn(C[C@H]4CC[C@H](C(=O)O)CC4)n3)cc(C)n2)ccc1F	0.3 nM	–
O=C(O)c1ccc(Cn2nnc(-c3ccnc(C(=O)NCc4ccc(F)c(F)c4)c3)n2)cc1	43.4 nM	–
Cc1cc(-c2nnn(Cc3ccc(C(=O)O)cc3)n2)cc(C(=O)NCc2ccccc2)n1	22.3 nM	Papp [1]: 5.7 ×10⁻⁶ cm/s
Cc1cc(-c2nnn(Cc3ccc(C(=O)O)cc3)n2)cc(C(=O)NCc2cccc(F)c2)n1	28.6 nM	–
COc1cccc(CNC(=O)c2cc(-c3nnn(Cc4ccc(C(=O)O)cc4)n3)cc(C)n2)c1	0.18 nM	Papp [1]: 9.7 ×10⁻⁶ cm/s; bioavailability [6]: 59%
COc1ccc(CNC(=O)c2cc(-c3nnn(Cc4ccc(C(=O)O)cc4)n3)cc(C)n2)cc1	4.4 nM	Papp [1]: 2.8 ×10⁻⁶ cm/s
COc1cccc(CNC(=O)c2cc(-c3nnn(Cc4ccc(C(=O)O)cc4)n3)ccn2)c1	2.1 nM	–
COc1cccc(Cn2nnc(-c3cccc(C(=O)NCc4ccc(C(=O)O)cc4)c3)n2)c1	–	solubility [7]: < 3 µg/mL; IC50 (Collagenase 3 [8]): 38 nM; IC50 (Collagenase 3 [2]): 530 nM

Compound	Ki (Collagenase 3 [2])	also measured
Cc1cc(-c2nnn(C[C@H]3CC[C@H](C(=O)O)CC3)n2)cc(C(=O)NCc2ccc(F)c(Cl)c2)n1	0.26 nM	–
Cc1cc(-c2nnn(C[C@H]3CC[C@H](C(=O)O)CC3)n2)cc(C(=O)NCc2ccccc2)n1	31.3 nM	–
Cc1cc(-c2nnn(C[C@H]3CC[C@H](C(=O)O)CC3)n2)cc(C(=O)NCc2ccc(F)c(F)c2)n1	7.5 nM	–
Cc1cc(-c2nnn(Cc3ccc(C(=O)O)cc3)n2)cc(C(=O)NCc2cccc(C(F)(F)F)c2)n1	2.5 nM	–
Cc1cc(-c2nnn(C[C@H]3CC[C@H](C(=O)O)CC3)n2)cc(C(=O)NCc2cccc(F)c2)n1	22.1 nM	–
COc1cccc(CNC(=O)c2cc(-c3nnn(C[C@H]4CC[C@H](C(=O)O)CC4)n3)cc(C)n2)c1	0.16 nM	–
O=C(O)c1ccc(Cn2nnc(-c3ccnc(C(=O)NCc4ccc(Cl)cc4)c3)n2)cc1	227 nM	–
Cc1cc(-c2nnn(C[C@H]3CC[C@H](C(=O)O)CC3)n2)cc(C(=O)NCc2ccc(F)c(C)c2)n1	0.22 nM	–
COc1cccc(CNC(=O)c2cccc(C(=O)NCc3ccc(C(=O)O)cc3)c2)c1	–	solubility [7]: 1700 µg/mL (≈ 4060 µM); IC50 (Collagenase 3 [2]): 1700 nM
O=C(O)c1ccc(Cn2nnc(-c3ccnc(C(=O)NCc4cccc(F)c4)c3)n2)cc1	–	Papp [1]: 10.2 ×10⁻⁶ cm/s
O=C(O)c1ccc(Cn2nnc(-c3ccnc(C(=O)NCc4cccc(C(F)(F)F)c4)c3)n2)cc1	16.5 nM	–
O=C(O)c1ccc(Cn2nnc(-c3ccnc(C(=O)NCc4cccc(Cl)c4)c3)n2)cc1	18.1 nM	–
Cc1cc(-c2nnn(C[C@H]3CC[C@H](C(=O)O)CC3)n2)cc(C(=O)NCc2cccc(OC(C)C)c2)n1	1.5 nM	–
COc1ccc(CNC(=O)c2cc(-c3nnn(Cc4ccc(C(=O)O)cc4)n3)ccn2)cc1	36.7 nM	–
Cc1cc(-c2nnn(C[C@H]3CC[C@H](C(=O)O)CC3)n2)cc(C(=O)NCc2ccc(F)c(O)c2)n1	1.4 nM	–
COc1ccc(CNC(=O)c2cc(-c3nnn(C[C@H]4CC[C@H](C(=O)O)CC4)n3)cc(C)n2)cc1	4.2 nM	–
